ChEMBL document CHEMBL1131818, “Novel quinolinequinone antitumor agents: structure-metabolism studies with NAD(P)H:quinone oxidoreductase (NQO1)” (Bioorg Med Chem Lett, 1999)

Assay: Metabolism by recombinant human NAD(P)H:quinone oxidoreductase (NQO1) was evaluated
Format: ADME

Point of comparison: `O=C1C(N2CCCC2)=CC(=O)c2ncccc21`, NADH oxidation 26.2 µM/min/mg. Against it:
- COC1=CC(=O)c2nc(-c3ccc(-c4ccccc4)cc3)ccc2C1=O — lower, 4.75 µM/min/mg
- COC1=CC(=O)c2nc(-c3ccccn3)ccc2C1=O — higher, 50.5 µM/min/mg
- COC1=C(N)C(=O)c2nc(-c3nc(C(=O)O)c(C)c(-c4ccc(OC)c(OC)c4O)c3N)ccc2C1=O [STREPTONIGRIN] — higher, 47.4 µM/min/mg
- COC1=CC(=O)c2c(cc(C)n2C)C1=O — lower, 5.31 µM/min/mg
- COC1=CC(=O)c2ncccc2C1=O — higher, 58.7 µM/min/mg
- COC1=CC(=O)c2nc(-c3ccccc3)ccc2C1=O — higher, 28.8 µM/min/mg
- COC1=CC(=O)c2nc(-c3cccc4ccccc34)ccc2C1=O — lower, 25.1 µM/min/mg
- COC1=CC(=O)c2nc(-c3ccc4ccccc4c3)ccc2C1=O — lower, 14 µM/min/mg
- COC1=CC(=O)c2nc(Cl)ccc2C1=O — higher, 100 µM/min/mg
- COC1=CC(=O)c2nc(-c3ccc(C)cc3)ccc2C1=O — lower, 19.2 µM/min/mg
- COC1=CC(=O)c2nc(-c3cccs3)ccc2C1=O — higher, 32.1 µM/min/mg
- COC1=CC(=O)c2nc(-c3cc4ccccc4o3)ccc2C1=O — higher, 33.3 µM/min/mg
- COC1=CC(=O)c2nc(-c3ccc(C)cn3)ccc2C1=O — higher, 45.7 µM/min/mg
